Test system: Epac1-induced H-Ras activation in HEK293 cells
Assay: Epac1-induced H-Ras activation, H-Ras-GTP pull-down in HEK293 cells
Assay type: cell-based
Protocol: The effects of CE3F4 to prevent Epac1-induced H-Ras activation was determined by extraction of GTP-loaded H-Ras from cell lysates with the immobilized Ras-binding domain of Raf1.
HEK293 cells (FIG. 3A) or rat neonatal cardiac myocytes (FIG. 3B) were transfected with Epac1. 24 h after transfection, cells were preincubated or not with CE3F4 for 30 min and were then treated or not with Sp-007 (10 μM) for 10 min. In FIG. 3C, HEK293 cells overexpressing β1-AR and transfected with Epac1 were pretreated or not with 20 μM of CE3F4 for 30 min and stimulated or not with Iso for 10 min. Amounts of H-Ras-GTP were determined by pull-down assays. The bar graph represents the mean±S.E.M. of 5 (FIG. 3A) or 2 (FIG. 3B, 3C) independent experiments. Results are expressed as the percentage of unstimulated control cells.
Ras and Rap1 pull-down experiments were performed using a GST fusion protein containing respectively the Ras binding domain of Raf1-RBD and the Rap1 binding domain of Ral-GDS as previously described (Métrich et al., 2008). Cells were starved for 1 h before stimulation in MEM free with penicillin-streptomycin (1%). […]

CC1CCc2c(cc(Br)c(F)c2Br)N1C=O (racemic) [CE3F4]
Amount of Ras-GTP induced by Iso (HEK293 overexpressing β1-AR, transfected with Epac1, CE3F4 20 μM, 30 min, Iso 10 min, FIG. 3C): decreased
Amount of Ras-GTP induced by Sp-007 (HEK293 transfected with Epac1, CE3F4 30 min, Sp-007 10 μM, 10 min, FIG. 3A): decreased

From patent publication US10093627B2, “Tetrahydroquinoline derivatives and their use as Epac inhibitors” (Institut National de la Sante et de la Recherche Medicale …, priority 2012, dated 2018)
